pEC50: −log10 of the molar value. Counter-ions that a name gives are not always drawn. One block for each compound: values may come before it.
How the values were obtained:
bovine β 1-AR = molecular target: T1, bovine β 1-AR (Bos taurus, UniProt Q9TT96); assay: cAMP induction in CHO cells transfected with bovine β 1-AR construct (LANCE cAMP kit); type: cell-based; details: 45 min, 5 mM theophylline, ND = cAMP not detected or insufficient for EC50
T1 construct: expressed in transfected cells; host or cells: Chinese hamster ovary (CHO) cells, pcDNA3.1+ vector
T1 sequence (Q9TT96 whole entry): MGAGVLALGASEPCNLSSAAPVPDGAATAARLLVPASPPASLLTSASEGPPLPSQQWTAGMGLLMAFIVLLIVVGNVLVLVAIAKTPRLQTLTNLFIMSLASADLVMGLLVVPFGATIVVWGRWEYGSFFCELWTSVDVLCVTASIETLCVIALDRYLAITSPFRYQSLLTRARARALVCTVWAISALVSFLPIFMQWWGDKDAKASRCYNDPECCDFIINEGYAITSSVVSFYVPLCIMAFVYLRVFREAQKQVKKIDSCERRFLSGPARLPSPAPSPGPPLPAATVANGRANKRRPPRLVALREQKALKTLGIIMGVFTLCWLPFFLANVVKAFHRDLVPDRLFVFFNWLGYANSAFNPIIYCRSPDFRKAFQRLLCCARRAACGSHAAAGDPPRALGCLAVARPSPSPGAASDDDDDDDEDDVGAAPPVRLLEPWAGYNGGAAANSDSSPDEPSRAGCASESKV
Description: (§1) Chinese Hamster Overy cells were transfected with either the bovine β 1-, β 2-, or β 3-AR constructs in pcDNA3.1+. Expression of the β-AR was confirmed by polymerase chain reaction (PCR). Thereafter, cells were grown in DMEM/Ham’s F12 media with 10% FBS and 1% penicillin/streptomycin at 37 °C under 5% CO2. Opti-plates (Perkin Elmer, Waltham, MA) were used for all experiments. For each experiment, cells were plated into 96-well tissue culture plates at 60,000 cells per well in a volume of 100 µL media. Cells were grown for 48 hr after plating prior to ligand addition and determination of cAMP.
(§2) All samples and standards were tested in duplicate for each repetition, and 4 repetitions per cell line were performed for each potential ligand tested. Controls included no treatment (media alone), 5 mM theophylline alone (an inhibitor of phosphodiesterase), 0.1 % DMSO alone, and water alone. None of the controls differed from media alone and are thus not reported. A volume of media equal to the volume of test material to be added was removed from the well just prior to stimulation. Theophylline was added in a volume of 25 µL to obtain a final concentration of 5 mM and each test molecule was delivered in 10 µL. Cells were returned to 37 °C and allowed to incubate for 45 min before media was removed and the cells lysed in 38 µL lysis buffer A. The LANCE cAMP detection kit (AD0262E) was purchased from Perkin Elmer. The LANCE assay instructions were followed for a 40 µL reaction volume with 15 µL of cell lysate. The reaction was incubated for 20 hr prior to measuring fluorescence. A standard curve was generated with increasing concentrations of cAMP, and the linear portion of the curve was used to calculate sample cAMP concentrations.

bovine β 3-AR = molecular target: T2, bovine β 3-AR (Bos taurus, UniProt P46626); assay: cAMP induction in CHO cells transfected with bovine β 3-AR construct (LANCE cAMP kit); type: cell-based; details: 45 min, 5 mM theophylline
T2 construct: expressed in transfected cells; host or cells: Chinese hamster ovary (CHO) cells, pcDNA3.1+ vector
T2 sequence (P46626 whole entry): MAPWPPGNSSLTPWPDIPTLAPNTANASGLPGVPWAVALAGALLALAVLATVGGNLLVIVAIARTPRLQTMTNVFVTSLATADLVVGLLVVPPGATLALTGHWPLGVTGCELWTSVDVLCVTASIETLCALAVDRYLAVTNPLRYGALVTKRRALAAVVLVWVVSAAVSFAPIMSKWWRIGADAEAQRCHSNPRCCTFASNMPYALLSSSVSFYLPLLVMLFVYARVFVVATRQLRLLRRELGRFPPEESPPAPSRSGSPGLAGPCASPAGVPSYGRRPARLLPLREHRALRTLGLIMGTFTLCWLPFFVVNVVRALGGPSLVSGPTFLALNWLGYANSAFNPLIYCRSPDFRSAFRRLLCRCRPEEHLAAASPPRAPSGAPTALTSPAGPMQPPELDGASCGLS
Description: as §1, §2

[1] = system: bovine s.c. adipose tissue; assay: cAMP in s.c. adipose tissue explants (Cyclic AMP XP Assay Kit); type: cell-based, bovine (Angus cross steers); details: for Effect on cAMP (in words): ligand alone; for Effect on cAMP (in words) / cAMP: 30 min; for cAMP: n = 6 steers, baseline 0.42 ± 0.06
Description: (§3) Fresh s.c. adipose tissue was cut into small pieces (50 to 100 mg, actual weight recorded) and i.m. adipose tissue was dissected from the LM as described previously ([Smith and Crouse, 1984]; [Miller et al., 1988]) and weighed. The s.c. and i.m. adipose samples were incubated according to 3 different sets of experimental conditions. Experiment 1: Small pieces of s.c. and i.m. adipose tissues (50 to 100 mg; 1 to 2 mm thick; [Smith and Prior, 1981]) were preincubated in 6-well tissue culture plates in a CO2/O2 incubator (NuAire model 4750 CO2 incubator, Plymouth, MN) for 30 min at 37 °C, 5% CO2 in KHB plus 5 mM glucose, 10 mM HEPES, and 0.5 mM theophylline. […] Experiment 2: The s.c. and i.m. adipose samples were preincubated in KHB plus 5 mM glucose, 10 mM HEPES, and 0.5 mM theophylline in the presence or absence of either 10 µM L-748,337 (β 3-AR antagonist) or 50 µM PRO (β-AR pan-antagonist). […] After the 30 min preincubation, either DOB (β 1-AA) or SAL (β 2-AA) was added to the culture plate wells in a concentration-dependent manner (10^–9 to 10^–4 M) for an additional 30 min. For all experiments, there were at least 3 replicate wells per treatment condition. After a total of 1-hr incubation, the adipose samples were homogenized in 1 mL cell lysis buffer (Cell Signaling Technology, Danvers, MA) with 1 mM phenymethylsulfony fluoride, and centrifuged at 14,000 × g for 30 min to remove tissue debris. The supernatant fractions were stored at −80 °C until subsequent analyses were performed.
(§4) The concentration of cAMP was determined based on the principle of competitive binding using the Cyclic AMP XP Assay Kit according to the manufacturer’s instructions. Cytosolic extracts from the adipose explants were co-incubated at room temperature for 3 hr in 96-well plates with the HRP-linked cAMP substrate coated onto an immobilized rabbit monoclonal cAMP antibody using a horizontal orbital plate shaker. After the reaction, color development was measured at 450 nm using an Epoch microplate reader (Biotek Instruments, Winooski, VT). All samples were analyzed in duplicate. A standard curve and cAMP concentrations were calculated using GrapPad Prism 6.04 software (GraphPad Software Inc., San Diego, CA).

[2] = system: bovine i.m. adipose tissue; assay: cAMP in i.m. adipose tissue explants (Cyclic AMP XP Assay Kit); type: cell-based, bovine (Angus cross steers); details: for Effect on cAMP (in words): ligand alone; for Effect on cAMP (in words) / cAMP: 30 min; for cAMP: i.m., mean ± SEM, n = 6 steers, baseline 0.64 ± 0.19
Description: as §3, §4

[3] = system: bovine s.c. adipose tissue; assay: Lipolysis: glycerol release, s.c. adipose tissue explants; type: cell-based, bovine (Angus cross steers); details: for Glycerol: s.c., mean ± SEM, baseline 50.0 ± 12.8
[4] = system: bovine i.m. adipose tissue; assay: Lipolysis: glycerol release, i.m. adipose tissue explants; type: cell-based, bovine (Angus cross steers); details: 30 min; for Effect on glycerol release (in words): i.m. adipose tissue; for Glycerol: i.m., mean ± SEM, baseline 48.6 ± 10.3
[5] = system: bovine s.c. adipose tissue; assay: Lipolysis: NEFA release, s.c. adipose tissue explants; type: cell-based, bovine (Angus cross steers); details: for Effect on NEFA release (in words) / NEFA: 30 min; for NEFA: s.c., mean ± SEM, baseline 0.99 ± 0.40
[6] = system: bovine i.m. adipose tissue; assay: Lipolysis: NEFA release, i.m. adipose tissue explants; type: cell-based, bovine (Angus cross steers); details: 30 min; for Effect on NEFA release (in words): i.m. adipose tissue; for NEFA: i.m., mean ± SEM, baseline 0.65 ± 0.20
[7] = s.c., 10^–6 M ligand, mean ± SEM
[8] = s.c., 10^–7 M ligand, mean ± SEM
[9] = s.c., 10^–8 M ligand, mean ± SEM
[10] = Bos taurus, sc, 0.5 h, s.c. adipose tissue, 30 min at 37 °C, n = 5

Induction of cAMP (EC50), β 1-Construct (bovine β 1-AR): no detectible cAMP response | pEC50 (bovine β 3-AR): 5.04
SMILES: CC(C)N[C@@H]1CCn2c(=O)[nH]c3cccc(c32)[C@H]1O (racemic) [ZIL, zilpaterol hydrochloride]
Effect on cAMP (in words) ([1]; s.c. adipose tissue): Neither RAC nor ZIL (10^–8 to 10^–6 M) affected cAMP concentrations | cAMP [1, 7]: 0.62 ± 0.27 pmol/100 mg tissue | cAMP [1, 8]: 0.61 ± 0.27 pmol/100 mg tissue | cAMP [1, 9]: 0.76 ± 0.37 pmol/100 mg tissue | Effect on cAMP (in words) ([2]; i.m. adipose tissue): Neither RAC nor ZIL (10^–8 to 10^–6 M) affected cAMP concentrations | cAMP ([2]; 10^–6 M ligand): 0.78 ± 0.39 pmol/100 mg tissue | cAMP ([2]; 10^–7 M ligand): 0.51 ± 0.13 pmol/100 mg tissue | cAMP ([2]; 10^–8 M ligand): 0.79 ± 0.30 pmol/100 mg tissue | Glycerol ([3]; 10^–6 M ligand, 30 min): 65.9 ± 12.6 nmol/100 mg tissue | Glycerol ([3]; 10^–7 M ligand, 30 min): 59.3 ± 15.4 nmol/100 mg tissue | Glycerol ([3]; 10^–8 M ligand, 30 min): 54.8 ± 8.0 nmol/100 mg tissue | Effect on glycerol release (in words) [4]: Neither RAC nor ZIL affected cAMP production or glycerol or NEFA release | Glycerol ([4]; 10^–6 M ligand): 46.0 ± 14.5 nmol/100 mg tissue | Glycerol ([4]; 10^–7 M ligand): 48.6 ± 13.7 nmol/100 mg tissue | Glycerol ([4]; 10^–8 M ligand): 67.4 ± 21.6 nmol/100 mg tissue | Effect on NEFA release (in words) ([5]; s.c. adipose tissue): Neither RAC nor ZIL affected cAMP production or glycerol or NEFA release | NEFA ([5]; 10^–6 M ligand): 1.17 ± 0.35 µmol/100 mg tissue | NEFA ([5]; 10^–7 M ligand): 1.25 ± 0.31 µmol/100 mg tissue | NEFA ([5]; 10^–8 M ligand): 1.06 ± 0.30 µmol/100 mg tissue | Effect on NEFA release (in words) [6]: Neither RAC nor ZIL affected cAMP production or glycerol or NEFA release | NEFA ([6]; 10^–6 M ligand): 0.50 ± 0.16 µmol/100 mg tissue | NEFA ([6]; 10^–7 M ligand): 0.91 ± 0.30 µmol/100 mg tissue | NEFA ([6]; 10^–8 M ligand): 0.78 ± 0.28 µmol/100 mg tissue

SMILES: CC(C)NCC(O)c1ccc(O)c(O)c1 (stereo not drawn) [ISO, isoproterenol hydrochloride]
pEC50 ([1]; Bos taurus, sc, 0.5 h, s.c. adipose tissue, 30 min at 37 °C, n = 5, read-out: EC50, cAMP accumulation): 6.66 | Concentration at which the cAMP response plateaus ([1]; s.c. adipose tissue): 10^–6 M | Effect on cAMP (in words) ([1]; s.c. adipose tissue): increased cAMP accumulation | Effect on cAMP (in words) ([2]; i.m. adipose tissue): not dose-dependent | pEC50 [3, 10]: 5.29 | Effect on glycerol release (in words) ([3]; s.c. adipose tissue, 30 min): increased glycerol release in a concentration-dependent manner | Effect on glycerol release (in words) [4]: had no effect | pEC50 [5, 10]: 6.74 | Effect on NEFA release (in words) ([5]; s.c. adipose tissue): increased NEFA release in a dose-dependent manner | Effect on NEFA release (in words) [6]: failed to elicit a similar response curve

SMILES: CC(C)(C)NCC(O)c1ccc(O)c(CO)c1 (stereo not drawn) [SAL, salbutamol sulfate]
Effect on cAMP (in words) ([1]; s.c. adipose tissue): increased cAMP production in s.c. adipose tissue in a dose-dependent manner | Effect on cAMP (in words) ([2]; i.m. adipose tissue): without effect in i.m. adipose tissue

SMILES: C[C@H](Cc1ccc(OCC(=O)O)cc1)NC[C@H](O)c1cccc(Cl)c1 [BRL-37344]
Effect on cAMP (in words) ([1]; s.c. adipose tissue): Neither BRL-37344 nor LUB influenced cAMP or NEFA concentrations | Adipose tissue lipolytic sensitivity (−logEC50) to β-AR ligands, s.c. ([1]; s.c., cAMP readout, mean ± SEM, n = 12 cattle, combinations: preincubation with 1 µM LUB ± 10 µM L-748,337): 7.00 ± 3.27 | cAMP concentration compared with explants treated with the same concentrations of LUB ([2]; i.m. adipose tissue, 10^–6 and 10^–5 M, P < 0.05): significantly less | Effect on NEFA release (in words) ([5]; s.c. adipose tissue): Neither BRL-37344 nor LUB influenced cAMP or NEFA concentrations | Effect on NEFA release (in words) [6]: not influenced

pEC50 (bovine β 1-AR): 8.70 | pEC50 (bovine β 3-AR): 7.62
SMILES: CC(CCc1ccc(O)cc1)NCC(O)c1ccc(O)cc1.Cl (racemic) [RAC, ractopamine hydrochloride]
Effect on cAMP (in words) ([1]; s.c. adipose tissue): Neither RAC nor ZIL (10^–8 to 10^–6 M) affected cAMP concentrations | cAMP [1, 7]: 0.44 ± 0.14 pmol/100 mg tissue | cAMP [1, 8]: 0.38 ± 0.08 pmol/100 mg tissue | cAMP [1, 9]: 0.39 ± 0.09 pmol/100 mg tissue | Effect on cAMP (in words) ([2]; i.m. adipose tissue): Neither RAC nor ZIL (10^–8 to 10^–6 M) affected cAMP concentrations | cAMP ([2]; 10^–6 M ligand): 0.70 ± 0.18 pmol/100 mg tissue | cAMP ([2]; 10^–7 M ligand): 0.76 ± 0.18 pmol/100 mg tissue | cAMP ([2]; 10^–8 M ligand): 0.86 ± 0.22 pmol/100 mg tissue | Glycerol ([3]; 10^–6 M ligand, 30 min): 63.3 ± 9.20 nmol/100 mg tissue | Glycerol ([3]; 10^–7 M ligand, 30 min): 52.6 ± 11.1 nmol/100 mg tissue | Glycerol ([3]; 10^–8 M ligand, 30 min): 50.3 ± 7.60 nmol/100 mg tissue | Effect on glycerol release (in words) [4]: Neither RAC nor ZIL affected cAMP production or glycerol or NEFA release | Glycerol ([4]; 10^–6 M ligand): 42.6 ± 11.4 nmol/100 mg tissue | Glycerol ([4]; 10^–7 M ligand): 81.7 ± 25.5 nmol/100 mg tissue | Glycerol ([4]; 10^–8 M ligand): 52.4 ± 16.4 nmol/100 mg tissue | Effect on NEFA release (in words) ([5]; s.c. adipose tissue): Neither RAC nor ZIL affected cAMP production or glycerol or NEFA release | NEFA ([5]; 10^–6 M ligand): 1.06 ± 0.13 µmol/100 mg tissue | NEFA ([5]; 10^–7 M ligand): 1.20 ± 0.21 µmol/100 mg tissue | NEFA ([5]; 10^–8 M ligand): 1.10 ± 0.15 µmol/100 mg tissue | Effect on NEFA release (in words) [6]: Neither RAC nor ZIL affected cAMP production or glycerol or NEFA release | NEFA ([6]; 10^–6 M ligand): 0.56 ± 0.13 µmol/100 mg tissue | NEFA ([6]; 10^–7 M ligand): 1.18 ± 0.50 µmol/100 mg tissue | NEFA ([6]; 10^–8 M ligand): 0.75 ± 0.21 µmol/100 mg tissue

SMILES: CC(CCc1ccc(O)cc1)NCCc1ccc(O)c(O)c1 (stereo not drawn) [DOB, dobutamine hydrochloride]
Effect on cAMP (in words) ([1]; s.c. adipose tissue): increased cAMP production in s.c. adipose tissue in a dose-dependent manner | Effect on cAMP (in words) ([2]; i.m. adipose tissue): without effect in i.m. adipose tissue

From paper PMC8326056 (Journal of Animal Science, 2021)
